Data published in patent US7361633B2, “Screening method and anti-tumor drug candidate obtained therefrom” (Ardana Bioscience Limited, priority 2002, dated 2008).
“Also recorded” adds a separate entry of the source.

Legend:
BPH-1 cells = experiment: Annexin V-FITC staining of extracellular phosphatidylserine (apoptosis) in BPH-1 cells; assay type: cell-based, human; conditions: 48 h
Experimental: All twelve panels depict either phase contrast (1, 4, 7, 10), confocal laser microscope (2, 5, 8, 11) or phase contrast/confocal merged images (3, 6, 9, 12). Panels 1 to 3 depict untreated control JEG-3 cells for cells in panels 4 to 6 which have been treated with GnRH I (100 nM) for 24 h. All cells have been exposed while live to an annexin V recombinant protein conjugated to the FITC fluorophore. The annexin V will bind specifically only to phosphatidlyserine (PS) lipids usually only expressed on the intracellular side of the plasma membrane lipid bilayer. An early sign of apoptosis is the translocation of these PS lipids from the intracellular side of the membrane to the outer aspect of the bilayer. […] The cellular levels of caspase 3 and procaspase 3 were assessed by specific immunoblotting of JEG-3 or BPH-1 whole cell (w-c) lysates from cells stimulated continuously with GnRH I for the times depicted. […]
(§1) Thus we have shown that upon continuous GnRH ligand stimulation of either JEG-3 or BPH-1 there is a retardation of cell growth, however we were interested as to whether there was any genuine induction of cellular apoptosis recently reported to occur in several tumour cell lines (Soon et al (2002) J. Clin. Endocrinol. Metab. 87, 4580-4586). […] Initially we measured the effects of GnRH stimulation upon the ultrastructural integrity of the cells plasma membrane. […]

JEG-3 cells = experiment: Annexin V-FITC staining of extracellular phosphatidylserine (apoptosis) in JEG-3 cells; assay type: cell-based, human; conditions: for extracellular annexin-V-reactive phosphatidylserine: 100 nM
Experimental: All twelve panels depict either phase contrast (1, 4, 7, 10), confocal laser microscope (2, 5, 8, 11) or phase contrast/confocal merged images (3, 6, 9, 12). Panels 1 to 3 depict untreated control JEG-3 cells for cells in panels 4 to 6 which have been treated with GnRH I (100 nM) for 24 h. All cells have been exposed while live to an annexin V recombinant protein conjugated to the FITC fluorophore. The annexin V will bind specifically only to phosphatidlyserine (PS) lipids usually only expressed on the intracellular side of the plasma membrane lipid bilayer. An early sign of apoptosis is the translocation of these PS lipids from the intracellular side of the membrane to the outer aspect of the bilayer. […] Panels 10 to 12 depict cells exposed to GnRH I for 48 h while panels 7 to 9 serve as unstimulated contemporaneous controls. […] The cellular levels of caspase 3 and procaspase 3 were assessed by specific immunoblotting of JEG-3 or BPH-1 whole cell (w-c) lysates from cells stimulated continuously with GnRH I for the times depicted.
A similar experimental approach was employed for the transfer of this study to BPH-1 cells, however as the MAPK under study in these cells was p38α much lower dose of SB203580 (1 μM) could be employed as the compound has a much greater inhibitory potency against p38 compared to JNK.
as §1, with “membrane. A well documented early event in apoptosis is a reversal in the polarity of many plasma membrane molecules such as phosphatidylserine (PS). At an early stage of cellular apoptosis there is a significant translocation of PS from the inner to the outer envelope of the plasma membrane.” for “membrane.”

PLC-β = experiment: Inositol phosphate accumulation in BPH-1 cells; assay type: cell-based, human; conditions: for inositol phosphate accumulation: 60 minutes, 10 mM LiCl, doses up to 50 μM
Experimental: BPH-1 cells were pre-incubated with ^3H-myoinositol (1 μCi/ml) for 48 h prior to ligand stimulation (60 minutes). Ligand stimulated inositol phosphate production was measured in the presence of 10 mM LiCl. […] IP accumulation can be used as a read out/marker for Gαq activation since the activation of PLCβ is PTX-resistant.

[1] = target: T1, marmoset Type II GnRH receptor (Callithrix jacchus, UniProt Q95MG6); experiment: Inositol phosphate accumulation in αT4-II cells; assay type: cell-based; conditions: GnRH II 10 nM
T1 construct: expressed in transfected cells
T1 sequence (Q95MG6 1-380): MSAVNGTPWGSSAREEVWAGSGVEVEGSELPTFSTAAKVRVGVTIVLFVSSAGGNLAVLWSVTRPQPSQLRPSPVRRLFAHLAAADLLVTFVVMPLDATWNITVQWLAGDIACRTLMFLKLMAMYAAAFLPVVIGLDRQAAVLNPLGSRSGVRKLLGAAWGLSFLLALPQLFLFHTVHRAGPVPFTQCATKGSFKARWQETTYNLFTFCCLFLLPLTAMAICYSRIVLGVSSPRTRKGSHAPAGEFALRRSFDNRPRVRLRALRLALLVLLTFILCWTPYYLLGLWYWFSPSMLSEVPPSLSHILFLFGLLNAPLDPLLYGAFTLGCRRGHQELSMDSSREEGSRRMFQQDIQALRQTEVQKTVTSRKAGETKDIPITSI
Experimental: The histograms in panels a and b represent inositol phosphate accumulation data from HEK293 cells stably expressing the Type I GnRH receptor only (SCL60). […] In panels c and d, the liberated inositol phosphates generated were measured in the proto-gonadotrope cells (αT4) stably expressing the marmoset Type II GnRH receptor (designated αT4-II).
The ability of the four major agents under study at activating ectopically expressed Type I or Type II GnRHR were tested (FIG. 12). The classical signal transduction cascade activated by GnRHR stimulation is the Gαq-PLC-β cascade. Both Type I and II receptor can stimulate the Gαq-PLC type-G-protein and activate PLC-β which cleaves phosphatidylinositol bisphosphate (PIP2) into inositol trisphosphate (IP3), other lower inositol phosphates (IPn) and diacylglycerol (DAG). The major function of IP3 is to elevate intracellular Ca^2+ while DAG causes the activation of specific PKC (protein kinase C) isoforms.
Panels a and b of FIG. 12 depict the generation of free cytoplasmic ^3H-myo-inositols on the plasma membranes of HEK293 cells expressing the Type I GnRHR and of αT4 gonadotropes expressing the marmoset Type II GnRHR. Prior to agonist stimulation the respective cells were incubated in inositol-free growth media supplemented with 1 μCi/ml ^3H-myoinositol for 48 h. G protein coupled receptor (GPCR)-induced activation of PLC-β results in the cleavage of PIP2 (incorporating tritium ^3H) into free lower inositol phosphates (IPns).

## C[S+]([O-])c1ccc(-c2nc(-c3ccncc3)c(-c3ccc(F)cc3)[nH]2)cc1 (centres unmarked) [SB203580]
BPH-1 cells; 1 μM SB203580 with GnRH I
  effect on GnRH I-induced annexin V-FITC staining (pro-apoptotic state): prevented GnRH from inducing a pro-apoptotic state in the BPH-1 cells; also recorded: almost completely abrogated
JEG-3 cells; 20 μM SB203580 with 100 nM GnRH I, 48 h
  effect on GnRH I-induced annexin V-FITC staining (pro-apoptotic state): significant reduction in extent of cells entering a pro-apoptotic state; also recorded: significant reduction in the degree of annexin-V-FITC staining

## Ac-D-Nal(2)-D-4-ClPhe-D-Pal-Ser-1-MePal-D-IsopropylLys-Leu-IsopropylLys-Pro-D-AlaNH2 [Ant 135-25]
PLC-β
  inositol phosphate accumulation: only high doses of GnRH I and Ant 135-25 cause any significant accumulation of inositol phosphates; also recorded: small capacity to induce inositol phosphate accumulation
[1]
  agonistic activity: liberated inositol phosphates at marmoset Type II GnRH receptor: do not cause any liberation of free inositol phosphates
[1]; listed as 135-25
  agonistic activity: liberated inositol phosphates at marmoset Type II GnRH receptor: no IPn-generating capacity
[1]; listed as Ant135-25
  agonistic activity: liberated inositol phosphates at marmoset Type II GnRH receptor: no partial activity at all; also recorded: fails to show any agonistic activity at the Type II marmoset GnRHR
[1]; listed as antagonist 135-25
  agonistic activity: liberated inositol phosphates at marmoset Type II GnRH receptor: failed to generate significant free inositol phosphate

## Ac-D-Nal(2)-D-4-ClPhe-D-Pal-Ser-Ile-D-IsopropylLys-Leu-IsopropylLys-Pro-D -AlaNH2 [Ant 135-18]
[1]
  agonistic activity: liberated inositol phosphates at marmoset Type II GnRH receptor: considerable partial agonistic activity; also recorded: dose-dependent agonistic activity
[1]; listed as 135-18
  agonistic activity: liberated inositol phosphates at marmoset Type II GnRH receptor: only the Type II receptor was activated by 135-18

## GnRH I: Gonadotropin-Releasing Hormone, a decapeptide; the original form of GnRH, re-named GnRH I
PLC-β
  inositol phosphate accumulation: only high doses of GnRH I and Ant 135-25 cause any significant accumulation of inositol phosphates; also recorded: small capacity to induce inositol phosphate accumulation
PLC-β; PTX 200 ng/ml 16 h, GnRH I 50 μM
  effect of pertussis toxin pre-incubation on induced inositol phosphate accumulation: abrogated by a 16 h pre-incubation of the BPH-1 cells with 200 ng/ml of pertussis toxin
BPH-1 cells
  extracellular annexin-V-reactive phosphatidylserine: Identical results; also recorded: significant induction of annexin-V-FITC reactivity on the outer plasma membrane envelope
JEG-3 cells; 24 h
  extracellular annexin-V-reactive phosphatidylserine: no significant expression of annexin-V-reactive PS on the extracellular surface of the plasma membrane
JEG-3 cells; 48 h
  extracellular annexin-V-reactive phosphatidylserine: significant expression of extracellular annexin-V-reactive PS; also recorded: cells begin to become anti-annexin V-FITC immunoreactive; also recorded: considerable amount of external membrane annexin-V-reactive PS
